Measurements: paper PMC7108740, “Exploring the molecular structures that confer ligand selectivity for galanin type II and III receptors” (PLoS ONE, 2020)
Ends that are not written are not given here.

How the values were obtained:
Assay type in all cases: cell-based
human GALR2 = molecular target: T1, human GALR2 (Homo sapiens, UniProt O43603); experiment: SRE-luc luciferase assay, WT GALR2; conditions: SRE-luc in HEK293 Gqi cells, ligand 6 h, mean ± SE, at least three independent experiments, SEM
T1 construct: host or cells: HEK293 cells stably expressing Gqi
T1 sequence (O43603 1-387): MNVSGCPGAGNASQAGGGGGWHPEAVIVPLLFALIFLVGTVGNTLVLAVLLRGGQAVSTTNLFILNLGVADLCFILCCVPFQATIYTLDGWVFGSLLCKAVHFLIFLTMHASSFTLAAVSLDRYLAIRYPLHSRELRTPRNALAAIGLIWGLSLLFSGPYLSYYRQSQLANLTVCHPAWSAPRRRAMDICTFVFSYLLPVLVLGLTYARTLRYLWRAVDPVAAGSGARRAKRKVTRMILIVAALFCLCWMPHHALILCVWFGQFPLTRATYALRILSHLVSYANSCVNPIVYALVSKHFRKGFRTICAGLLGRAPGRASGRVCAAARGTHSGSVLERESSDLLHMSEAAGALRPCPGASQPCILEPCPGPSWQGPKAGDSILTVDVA
From the text: The pcDNA3.1 vector was purchased from Invitrogen (San Diego, CA, USA). The serum response element (SRE)-luciferase (SRE-luc) vector containing a single copy of the SRE (CCATATTAGG) conjugated with luciferase was purchased from Stratagene (La Jolla, CA, USA). The cDNAs for human GALR1, GALR2, and GALR3 were obtained from BRN SCIENCE, Inc. The cDNAs were inserted into the EcoRⅠ and XhoⅠ sites of pcDNA3.1.
HEK293 cells stably expressing the Gqi construct, which allows induction of Gq-dependent signaling pathways upon activation of a Gi-coupled receptor [14, 30], were maintained in Dulbecco's Modified Eagle's Medium (DMEM) in the presence of 10% fetal bovine serum and 1% penicillin and streptomycin. For all transfections, 200 ng DNA (100 ng receptor and 100 ng SRE-luc) mixed with lipofectamine 2000 was applied to 60–80% confluent cells on a multi-well plate according to the manufacturer's instructions (Invitrogen, Carlsbad, CA).
For luciferase assays, HEK293 Gqi cells were seeded on 48-well plates at a density of 2.5 × 10^4 cells/well one day before transfection. A mixture including 100 ng SRE-luc reporter construct, 100 ng expression plasmid, and lipofectamine 2000 reagent in diluted Opti-MEM (Gibco) was incubated at room temperature for 20 min and then added into each well according to the manufacturer's instructions (Invitrogen, CA, USA). Before exposure to the ligands, the cells were maintained in serum-free DMEM for 16–18 h. Approximately 48 h after transfection, the cells were treated with ligand for 6 h. The cells were then lysed by the addition of 100 μl lysis buffer. The luciferase activity in 50 μl cell extract was determined using a luciferase assay system according to the standard protocol for the Synergy 2 Multi-Mode Microplate Reader (BioTek, Winooski, VT, USA).
Data analysis was performed by non-linear regression with a sigmoidal dose-response curve. The concentrations of agonists that induced half-maximal stimulation (EC50) were calculated using the GraphPad PRISM5 software (GraphPad software, Inc., San Diego, CA). All data are presented as the mean ± standard error (SE) of at least three independent experiments.

[1] = molecular target: T2, GALR3 single mutant L^184M (Homo sapiens, UniProt O60755, L184M); experiment: SRE-luc luciferase assay, GALR3 L184M; conditions: GALR3 L^184M; SRE-luc in HEK293 Gqi cells, ligand 6 h; mean ± S.E.; SEM
T2 construct: expressed in transfected cells; host or cells: HEK293 cells stably expressing Gqi
T2 sequence (O60755 whole entry L184M): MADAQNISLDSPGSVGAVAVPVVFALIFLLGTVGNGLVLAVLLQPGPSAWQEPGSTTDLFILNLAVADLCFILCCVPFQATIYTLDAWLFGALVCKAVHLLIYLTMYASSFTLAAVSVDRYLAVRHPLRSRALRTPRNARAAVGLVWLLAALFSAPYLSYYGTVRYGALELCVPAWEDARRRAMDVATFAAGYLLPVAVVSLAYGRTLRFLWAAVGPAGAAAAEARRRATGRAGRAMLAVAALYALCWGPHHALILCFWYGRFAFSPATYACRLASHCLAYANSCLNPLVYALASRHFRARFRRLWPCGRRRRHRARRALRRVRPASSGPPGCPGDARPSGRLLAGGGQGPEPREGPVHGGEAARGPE
From the text: (§1) For domain swapping between GALR2 and GALR3, individual cDNA fragments of interest were amplified by polymerase chain reaction (PCR) with Pfu polymerase (ELPIS Biotech, Daejeon, Korea) and two specific primers, one corresponding to the 5' or 3' end of the GALR2 or GALR3 cDNA and the other to the region of overlap between the two receptors. The two resulting fragments, one from GALR2 and the other from GALR3, were subjected to a second round of PCR to generate the chimeric cDNAs. To construct single, double-, triple-, pentuple-, hextuple-, and septuple-mutant receptors, amino acids of GALR3 were substituted for the amino acids at the corresponding positions in GALR2 using PCR-based site-directed mutagenesis. All of the chimeric constructs were cloned into the pcDNA3 expression vector at HindⅢ and XbaⅠ sites. The DNA sequences of the chimeras were verified by automatic sequencing. […] The luciferase activity in 50 μl cell extract was determined using a luciferase assay system according to the standard protocol for the Synergy 2 Multi-Mode Microplate Reader (BioTek, Winooski, VT, USA). […] The concentrations of agonists that induced half-maximal stimulation (EC50) were calculated using the GraphPad PRISM5 software (GraphPad software, Inc., San Diego, CA). […]

[2] = molecular target: T3, GALR3 single mutant A^187C (Homo sapiens, UniProt O60755, A187C); experiment: SRE-luc luciferase assay, GALR3 A187C; conditions: GALR3 A^187C; SRE-luc in HEK293 Gqi cells, ligand 6 h; mean ± S.E.; SEM
T3 construct: expressed in transfected cells; host or cells: HEK293 cells stably expressing Gqi
T3 sequence (O60755 whole entry A187C): as the sequence (O60755 whole entry L184M) above, with M184L, A187C counted along it
From the text: as §1

[3] = molecular target: T4, GALR3 mutant L^184M,V^186I,A^187C, A^190V,A^191F (Homo sapiens, UniProt O60755, A187C/A190V/A191F/L184M/V186I); experiment: SRE-luc luciferase assay, GALR3 pentuple mutant (A191F); conditions: GALR3 L^184M,V^186I,A^187C, SRE-luc in HEK293 Gqi cells, ligand 6 h, mean ± S.E., SEM
T4 construct: expressed in transfected cells; host or cells: HEK293 cells stably expressing Gqi
T4 sequence (O60755 whole entry L184M/V186I/A187C/A190V/A191F): as the sequence (O60755 whole entry L184M) above, with V186I, A187C, A190V, A191F counted along it
From the text: as §1

[4] = molecular target: T5, GALR3 mutant L^184M,V^186I,A^187C, A^190V,A^191F,G^192S (Homo sapiens, UniProt O60755, A187C/A190V/A191F/G192S/L184M/V186I); experiment: SRE-luc luciferase assay, GALR3 hextuple mutant; conditions: GALR3 L^184M,V^186I,A^187C, SRE-luc in HEK293 Gqi cells, ligand 6 h, mean ± S.E., SEM
T5 construct: expressed in transfected cells; host or cells: HEK293 cells stably expressing Gqi
T5 sequence (O60755 whole entry L184M/V186I/A187C/A190V/A191F/G192S): as the sequence (O60755 whole entry L184M) above, with V186I, A187C, A190V, A191F, G192S counted along it
From the text: as §1

Row | EC50 (human GALR2) [µM] | EC50 [1] [µM] | EC50 [2] [µM] | EC50 [3] [µM] | EC50 [4] [µM] | Compound
1 | 0.0331 ± 0.00619 | 0.437 ± 0.0898 | 0.55 ± 0.151 | 0.141 ± 0.0365 | 0.112 ± 0.0251 | NWTPQAMLYLKGPQ-NH2 [P^13-SPX]
2 | 0.0877 ± 0.0106 |  |  |  |  | NWTPNAMLYLKGAQ-NH2 [N^5-SPX]
3 |  | 0.0468 ± 0.0159 | 0.115 ± 0.0277 | 0.0501 ± 0.0162 | 0.0257 ± 0.00792 | CSCC[C@H](NC(=O)[C@H](C)NC(=O)[C@H](CCC(N)=O)NC(=O)[C@@H]1CCCN1C(=O)[C@@H](NC(=O)[C@H](Cc1c[nH]c2ccccc12)NC(=O)[C@@H](N)CC(N)=O)[C@@H](C)O)C(=O)N[C@@H](CC(C)C)C(=O)N[C@@H](Cc1ccc(O)cc1)C(=O)N[C@@H](CC(C)C)C(=O)N[C@@H](CCCCN)C(=O)NCC(=O)N[C@@H](C)C(=O)N[C@@H](CCC(N)=O)C(N)=O [SPX, reference compound]
4 | 0.0407 ± 0.0132 |  |  |  |  | NWTPQAALYLKGAQ-NH2 [A^7-SPX]
